# Like-named read-outs stand apart in the source and are kept apart here. Square brackets hold non-standard residues; d marks the D form. Peptide text beside a SMILES is read from it.
# Molecular target: T1, Human recombinant melanocortin MCI receptors (Homo sapiens, UniProt Q01726)
# T1 construct: purchased Eurofins Discovery Item 251100; host or cells: CHO-K1
# Assay: MC1 Human Melanocortin GPCR Binding (Agonist Radioligand) competition assay (Eurofins Item 251100)
# Description: The binding of Group A MCIR peptide antagonists of the disclosure was evaluated in a competition assay (MC1 Human Melanocortin GPCR Binding (Agonist Radioligand) Assay, Item 251100, Eurofins Discovery). […] Human recombinant melanocortin MCI receptors were expressed in CHO-K1 cells in modified HEPES-KOH buffer pH 7.0. […] Non-specific binding was estimated in the presence of 1 μM NDP-α-MSH. Receptors were filtered and washed, and the filters counted to determine [^125I] NDP-α-MSH specifically bound. Peptide antagonists of the disclosure having amino acid sequences as set forth in SEQ ID NOS: 11, 16, 25, 27, 32, 35, and 40 (each having a C-terminal —NH2) were screened at five concentrations, as well as a positive control, SEQ ID NO: 1 (Melanostatine-5). Inhibition curves were obtained by determining the reduction of bound α-MSH in the presence of an amount of, and/or by increasing amounts of, each peptide antagonist. Non-specific binding of peptide was estimated separately in the presence of a vast excess (1 mM) of unlabeled α-MSH, which occupies all the available receptor binding sites. Based on the competitive binding curve, the IC50 values were determined (Eurofins or AAT Bioquest IC50 calculator). […] The binding of Group A MCIR peptide antagonists of the disclosure was evaluated in a competition assay (MC1 Human Melanocortin GPCR Binding (Agonist Radioligand) Assay, Item 251100, Eurofins Discovery). […] Human recombinant melanocortin MCI receptors were expressed in CHO-K1 cells in modified HEPES-KOH buffer pH 7.0. […] Non-specific binding was estimated in the presence of 1 μM NDP-α-MSH. Receptors were filtered and washed, and the filters counted to determine [^125I]NDP-α-MSH specifically bound. Peptide antagonists of the disclosure having amino acid sequences as set forth in SEQ ID NOS: 11, 16, 25, 27, 32, 35, and 40 were screened at five concentrations. Inhibition curves were obtained by determining the reduction of bound α-MSH in the presence of an amount of, and/or by increasing amounts of, each peptide antagonist. […] Based on the percent inhibition relative to the agonist the IC50 values were determined (Eurofins or AAT Bioquest IC50 calculator).
# [1] = Example 7, Table 7, binned, screened at five concentrations, read-out: IC50
# [2] = stated as 'in some embodiments', broadest range, read-out: IC50 value using a competition assay
# T1 sequence (Q01726 whole entry): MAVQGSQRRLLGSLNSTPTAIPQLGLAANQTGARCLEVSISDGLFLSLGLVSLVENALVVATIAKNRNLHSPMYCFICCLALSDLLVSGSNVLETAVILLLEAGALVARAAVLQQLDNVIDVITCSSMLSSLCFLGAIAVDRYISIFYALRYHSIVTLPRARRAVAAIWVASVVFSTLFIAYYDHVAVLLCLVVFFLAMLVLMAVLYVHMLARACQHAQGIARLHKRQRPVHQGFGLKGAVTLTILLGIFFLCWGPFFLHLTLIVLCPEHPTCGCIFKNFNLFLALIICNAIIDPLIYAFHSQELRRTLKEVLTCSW
Compound,IC50 [1] [nM],also measured
"CC(C)[C@H](NC(=O)[C@@H]1CCCN1C(=O)[C@H](CCCCN)NC(=O)[C@H](Cc1ccccc1)NC(=O)[C@@H](Cc1c[nH]c2ccccc12)NC(=O)[C@H](CCCNC(=N)N)NC(=O)[C@@H](Cc1ccccc1)NC(=O)[C@@H](NC(=O)[C@@H](N)CCC(=O)O)C(C)C)C(N)=O [SEQ ID NO: 25, Glu-Val-dPhe-Arg-dTrp-Phe-Lys-Pro-Val-NH2] (H-EV[dF]R[dW]FKPV-NH2)",> 500,
"CC(C)C[C@@H](NC(=O)[C@H](C)N)C(=O)N[C@H](Cc1ccccc1)C(=O)N[C@@H](CCCNC(=N)N)C(=O)N[C@H](Cc1c[nH]c2ccccc12)C(=O)N[C@@H](Cc1ccccc1)C(=O)N[C@@H](CCCCN)C(=O)N1CCC[C@H]1C(=O)N[C@H](C(N)=O)C(C)C [SEQ ID NO: 40, Ala-dLeu-dPhe-Arg-dTrp-Phe-Lys-Pro-Val-NH2] (H-A[dL][dF]R[dW]FKPV-NH2)",> 500,
"CSCC[C@H](N)C(=O)N1CCC[C@H]1C(=O)N[C@H](Cc1ccccc1)C(=O)N[C@@H](CCCNC(=N)N)C(=O)N[C@H](Cc1c[nH]c2ccccc12)C(=O)N[C@@H](Cc1ccccc1)C(=O)N[C@@H](CCCCN)C(=O)N1CCC[C@H]1C(=O)N[C@H](C(N)=O)C(C)C [SEQ ID NO: 1, Met-Pro-D-Phe-Arg-D-Trp-Phe-Lys-Pro-Val, reference compound] (H-MP[dF]R[dW]FKPV-NH2)",,"IC50 (IC50, Example 7, Table 7, binned, screened at five concentrations): < 200 nM; IC50 (IC50 value, Example 1, competition with 0.04 nM [125I]NDP-α-MSH, 120 minutes at 37° C): 120 nM"
"CSCC[C@H](N)C(=O)N[C@H](C(=O)N[C@H](Cc1ccccc1)C(=O)N[C@H](CCCNC(=N)N)C(=O)N[C@H](Cc1c[nH]c2ccccc12)C(=O)N[C@@H](Cc1ccccc1)C(=O)N[C@@H](CCCCN)C(=O)N1CCC[C@H]1C(=O)N[C@H](C(N)=O)C(C)C)C(C)C [SEQ ID NO: 35, Met-Val-dPhe-dArg-dTrp-Phe-Lys-Pro-Val-NH2] (H-MV[dF][dR][dW]FKPV-NH2)",> 500,
"CC[C@H](C)[C@H](N)C(=O)N[C@@H](Cc1ccccc1)C(=O)N[C@@H](CCCNC(=N)N)C(=O)N[C@H](Cc1c[nH]c2ccccc12)C(=O)N[C@@H](Cc1ccccc1)C(=O)N[C@@H](CCCCN)C(=O)N1CCC[C@H]1C(=O)N[C@H](C(N)=O)C(C)C [SEQ ID NO: 32, Ile-Phe-Arg-dTrp-Phe-Lys-Pro-Val-NH2] (H-IFR[dW]FKPV-NH2)",< 200,IC50 [2]: 70 to 160 nM
"CSCC[C@H](N)C(=O)N[C@H](C(=O)N[C@@H](Cc1ccccc1)C(=O)N[C@@H](CCCNC(=N)N)C(=O)N[C@H](Cc1c[nH]c2ccccc12)C(=O)N[C@@H](Cc1ccccc1)C(=O)N[C@@H](CCCCN)C(=O)N1CCC[C@H]1C(=O)N[C@H](C(N)=O)C(C)C)C(C)C [SEQ ID NO: 27, Met-Val-Phe-Arg-dTrp-Phe-Lys-Pro-Val-NH2] (H-MVFR[dW]FKPV-NH2)",> 500,
"CC(C)[C@H](NC(=O)[C@@H]1CCCN1C(=O)[C@H](CCCCN)NC(=O)[C@H](Cc1ccccc1)NC(=O)[C@@H](Cc1c[nH]c2ccccc12)NC(=O)[C@H](CCCNC(=N)N)NC(=O)[C@@H](Cc1ccccc1)NC(=O)[C@@H](NC(=O)[C@H](C)N)C(C)C)C(N)=O [SEQ ID NO: 11, Ala-Val-dPhe-Arg-dTrp-Phe-Lys-Pro-Val-NH2] (H-AV[dF]R[dW]FKPV-NH2)",200 to 500,
"CC(C)[C@H](NC(=O)[C@@H]1CCCN1C(=O)[C@H](CCCCN)NC(=O)[C@H](Cc1ccccc1)NC(=O)[C@@H](Cc1c[nH]c2ccccc12)NC(=O)[C@H](CCCNC(=N)N)NC(=O)[C@@H](Cc1ccccc1)NC(=O)[C@@H](NC(=O)[C@@H](N)Cc1ccccc1)C(C)C)C(N)=O [SEQ ID NO: 16, Phe-Val-dPhe-Arg-dTrp-Phe-Lys-Pro-Val-NH2] (H-FV[dF]R[dW]FKPV-NH2)",< 200,IC50 [2]: 70 to 160 nM
